{"source": "ChEMBL document CHEMBL3046355", "about": "“Design, synthesis, and herbicidal activities of novel 2-cyanoacrylates containing isoxazole moieties” (2010)", "assay_type_in_all_cases": "functional", "key": {"Amaranthus retroflexus [1]": {"tested_on": "Amaranthus retroflexus", "experiment": "Herbicidal activity against Amaranthus retroflexus assessed as inhibition of weed growth at 150 g/ha using postemergence treatment protocol", "conditions": "post-emergence"}, "Amaranthus retroflexus [2]": {"tested_on": "Amaranthus retroflexus", "experiment": "Herbicidal activity against Amaranthus retroflexus assessed as inhibition of weed growth at 375 g/ha using postemergence treatment protocol", "conditions": "post-emergence"}, "Brassica napus [3]": {"tested_on": "Brassica napus", "experiment": "Herbicidal activity against Brassica napus (oilseed rape) assessed as inhibition of weed growth at 75 g/ha using postemergence treatment protocol", "conditions": "post-emergence"}, "Echinochloa crus-galli [4]": {"tested_on": "Echinochloa crus-galli", "experiment": "Herbicidal activity against Echinochloa crus-galli (barnyard grass) assessed as inhibition of weed growth at 1.5 kg/ha using postemergence treatment protocol", "conditions": "post-emergence"}, "Digitaria sanguinalis [5]": {"tested_on": "Digitaria sanguinalis", "experiment": "Herbicidal activity against Digitaria sanguinalis (hairy crabgrass) assessed as inhibition of weed growth at 1.5 kg/ha using pre-emergence treatment protocol"}, "Amaranthus retroflexus [6]": {"tested_on": "Amaranthus retroflexus", "experiment": "Herbicidal activity against Amaranthus retroflexus assessed as inhibition of weed growth at 1.5 kg/ha using postemergence treatment protocol", "conditions": "post-emergence"}, "Brassica napus [7]": {"tested_on": "Brassica napus", "experiment": "Herbicidal activity against Brassica napus (oilseed rape) assessed as inhibition of weed growth at 375 g/ha using postemergence treatment protocol", "conditions": "post-emergence"}, "Echinochloa crus-galli [8]": {"tested_on": "Echinochloa crus-galli", "experiment": "Herbicidal activity against Echinochloa crus-galli (barnyard grass) assessed as inhibition of weed growth at 1.5 kg/ha using preemergence treatment protocol", "conditions": "pre-emergence"}, "Brassica napus [9]": {"tested_on": "Brassica napus", "experiment": "Herbicidal activity against Brassica napus (oilseed rape) assessed as inhibition of weed growth at 1.5 kg/ha using preemergence treatment protocol", "conditions": "pre-emergence"}, "Brassica napus [10]": {"tested_on": "Brassica napus", "experiment": "Herbicidal activity against Brassica napus (oilseed rape) assessed as inhibition of weed growth at 150 g/ha using postemergence treatment protocol", "conditions": "post-emergence"}, "Digitaria sanguinalis [11]": {"tested_on": "Digitaria sanguinalis", "experiment": "Herbicidal activity against Digitaria sanguinalis (hairy crabgrass) assessed as inhibition of weed growth at 1.5 kg/ha using post-emergence treatment protocol"}, "Brassica napus [12]": {"tested_on": "Brassica napus", "experiment": "Herbicidal activity against Brassica napus (oilseed rape) assessed as inhibition of weed growth at 750 g/ha using postemergence treatment protocol", "conditions": "post-emergence"}, "Amaranthus retroflexus [13]": {"tested_on": "Amaranthus retroflexus", "experiment": "Herbicidal activity against Amaranthus retroflexus assessed as inhibition of weed growth at 1.5 kg/ha using preemergence treatment protocol", "conditions": "pre-emergence"}, "Amaranthus retroflexus [14]": {"tested_on": "Amaranthus retroflexus", "experiment": "Herbicidal activity against Amaranthus retroflexus assessed as inhibition of weed growth at 750 g/ha using postemergence treatment protocol", "conditions": "post-emergence"}, "Amaranthus retroflexus [15]": {"tested_on": "Amaranthus retroflexus", "experiment": "Herbicidal activity against Amaranthus retroflexus assessed as inhibition of weed growth at 75 g/ha using postemergence treatment protocol", "conditions": "post-emergence"}, "Brassica napus [16]": {"tested_on": "Brassica napus", "experiment": "Herbicidal activity against Brassica napus (oilseed rape) assessed as inhibition of weed growth at 1.5 kg/ha using postemergence treatment protocol", "conditions": "post-emergence"}}, "data": [{"smiles": "CCOCCOC(=O)/C(C#N)=C(\\NCc1cc(-c2ccc(Cl)cc2)no1)C(C)C", "values": [{"measurement": "inhibition at 150 g/ha", "setting": "Amaranthus retroflexus [1]", "result": 26.1, "unit": "%"}, {"measurement": "inhibition at 375 g/ha", "setting": "Amaranthus retroflexus [2]", "result": 100, "unit": "%"}, {"measurement": "inhibition at 75 g/ha", "setting": "Brassica napus [3]", "result": 29.6, "unit": "%"}, {"measurement": "inhibition at 1500 g/ha", "setting": "Echinochloa crus-galli [4]", "result": 33, "unit": "%"}, {"measurement": "inhibition at 1500 g/ha", "setting": "Digitaria sanguinalis [5]", "result": 0, "unit": "%"}, {"measurement": "inhibition at 1500 g/ha", "setting": "Amaranthus retroflexus [6]", "result": 100, "unit": "%"}, {"measurement": "inhibition at 375 g/ha", "setting": "Brassica napus [7]", "result": 100, "unit": "%"}, {"measurement": "inhibition at 1500 g/ha", "setting": "Echinochloa crus-galli [8]", "result": 0, "unit": "%"}, {"measurement": "inhibition at 1500 g/ha", "setting": "Brassica napus [9]", "result": 10.6, "unit": "%"}, {"measurement": "inhibition at 150 g/ha", "setting": "Brassica napus [10]", "result": 36.3, "unit": "%"}, {"measurement": "inhibition at 1500 g/ha", "setting": "Digitaria sanguinalis [11]", "result": 64.1, "unit": "%"}, {"measurement": "inhibition at 750 g/ha", "setting": "Brassica napus [12]", "result": 100, "unit": "%"}, {"measurement": "inhibition at 1500 g/ha", "setting": "Amaranthus retroflexus [13]", "result": 68.7, "unit": "%"}, {"measurement": "inhibition at 750 g/ha", "setting": "Amaranthus retroflexus [14]", "result": 100, "unit": "%"}, {"measurement": "inhibition at 75 g/ha", "setting": "Amaranthus retroflexus [15]", "result": 8.7, "unit": "%"}, {"measurement": "inhibition at 1500 g/ha", "setting": "Brassica napus [16]", "result": 100, "unit": "%"}]}]}
